From patent US20160031941A1, “TARGETING PEPTIDES THAT BIND S. MUTANS, CONSTRUCTS COMPRISING SUCH PEPTIDES AND USES THEREOF” (priority 2014, published 2016) come the findings set out here.

Where two headings read alike, the source gives them in different places. Ends that are not written are not given here. Peptide text beside a SMILES is read from it.

In data set [1] the test system is S. mutans. Particulars: Streptococcus mutans.
The subject of another data set is B. subtilis. Put plainly: MIC of antimicrobial peptides. Type of data set: cell-based. As to the method:
(§1) Typically, the in vitro antimicrobial activity of antimicrobial agents is tested using standard NCCLS bacterial inhibition assays, or MIC tests (see, National Committee on Clinical Laboratory Standards “Performance Standards for Antimicrobial Susceptibility Testing,” NCCLS Document M100-S5 Vol. 14, No. 16, December 1994; “Methods for dilution antimicrobial susceptibility test for bacteria that grow aerobically-Third Edition,” Approved Standard M7-A3, National Committee for Clinical Standards, Villanova, Pa.).

In another data set the test system is MRSA. Briefly: MIC of antimicrobial peptides. Type of data set: cell-based, methicillin resistant Staphylococcus aureus. As to the method:
as §1

In another data set the test system is T. rubrum. Briefly: MIC of antimicrobial peptides. Format: cell-based. On the procedure:
as §1

Another data set relates to E. coli. Put plainly: MIC of antimicrobial peptides. Type of data set: cell-based. As to the method:
as §1

Data set [2] concerns S. mutans. Format: cell-based. As to the method:
as §1

A further data set deals with P. aeruginosa. Format: cell-based. On the procedure:
as §1

The next data set deals with A. niger. Briefly: MIC of antimicrobial peptides. Type of data set: cell-based. As to the method:
as §1

In another data set the test system is C. difficile. Type of data set: cell-based. On the procedure:
as §1

A further data set concerns S. pneumoniae. Type of data set: cell-based. As to the method: as §1
Another data set concerns C. jeikeium. Type of data set: cell-based. As to the method: as §1
A further data set has as its system A. baumannii. Type of data set: cell-based. As to the method: as §1
The test system of the next data set is S. epidermidis. Format: cell-based. On the procedure:
as §1

On to `CC[C@H](C)[C@H](NC(=O)CNC(=O)[C@H](CCCCN)NC(=O)[C@H](CCCNC(=N)N)NC(=O)[C@@H](NC(=O)[C@@H](NC(=O)[C@H](CCCNC(=N)N)NC(=O)[C@H](CC(C)C)NC(=O)[C@H](CC(N)=O)NC(=O)[C@H](CCCCN)NC(=O)CNC(=O)CNC(=O)CNC(=O)[C@H](CCCCN)NC(=O)CNC(=O)[C@H](CC(C)C)NC(=O)[C@H](C)NC(=O)[C@H](CCC(N)=O)NC(=O)[C@@H](NC(=O)[C@H](CCC(N)=O)NC(=O)[C@H](CO)NC(=O)[C@H](CCCNC(=N)N)NC(=O)[C@H](CC(N)=O)NC(=O)[C@H](CCC(N)=O)NC(=O)[C@H](CC(C)C)NC(=O)[C@H](CCCNC(=N)N)NC(=O)[C@H](Cc1ccccc1)NC(=O)[C@H](CCC(N)=O)NC(=O)[C@@H](N)[C@@H](C)O)[C@@H](C)O)[C@@H](C)CC)[C@@H](C)CC)C(=O)N[C@@H](Cc1c[nH]cn1)C(=O)N[C@H](C(=O)N[C@H](C(=O)N[C@@H](CCCCN)C(=O)N[C@@H](CCCCN)C(=O)N[C@@H](Cc1ccc(O)cc1)C(N)=O)[C@@H](C)CC)[C@@H](C)CC` [F7/11/15 sub Q_C16G2], for which the “% viability remaining” value in the data set on S. mutans [1] was 93%.
In general, MIC refers to the smallest concentration in the dilution series that meets the test's criterion for growth inhibition. Turning to `CC[C@H](C)[C@H](NC(=O)CNC(=O)[C@@H](N)CCSC)C(=O)N[C@H](C(=O)N[C@@H](C)C(=O)NCC(=O)N[C@H](C(=O)N[C@H](C(=O)N[C@@H](CCCCN)C(=O)N[C@@H](Cc1ccccc1)C(=O)N[C@H](C(=O)N[C@@H](CCCCN)C(=O)NCC(=O)N[C@@H](CC(C)C)C(=O)N[C@H](C(=O)N[C@@H](CCC(=O)O)C(=O)N[C@@H](CCCCN)C(=O)N[C@@H](Cc1ccccc1)C(=O)N[C@H](C(=O)NCC(=O)N[C@@H](CCCCN)C(=O)O)[C@@H](C)O)[C@@H](C)CC)[C@@H](C)CC)[C@@H](C)CC)[C@@H](C)CC)[C@@H](C)CC` [PF-006], the MIC entry in the data set with B. subtilis was “B. subtilis, 25 μM”; in the data set on MRSA, “MRSA, 50 μM”.
Turning to `CSCC[C@H](N)C(=O)N[C@@H](CCCCN)C(=O)N[C@@H](CCCNC(=N)N)C(=O)N[C@@H](CCCNC(=N)N)C(=O)N[C@@H](CCCNC(=N)N)C(=O)N[C@@H](CS)C(=O)N[C@@H](CC(N)=O)C(=O)N[C@@H](Cc1c[nH]c2ccccc12)C(=O)N[C@@H](CS)C(=O)NCC(=O)N[C@@H](CCCCN)C(=O)N[C@@H](CC(C)C)C(=O)N[C@@H](Cc1ccccc1)C(=O)N[C@@H](Cc1ccc(O)cc1)C(=O)N[C@@H](CC(C)C)C(=O)N[C@@H](CCC(=O)O)C(=O)N[C@@H](CCC(=O)O)C(=O)N[C@@H](CCCCN)C(=O)N[C@@H](CO)C(=O)N[C@@H](CCCCN)C(=O)N[C@@H](CCC(=O)O)C(=O)N[C@@H](C)C(=O)N[C@@H](Cc1ccc(O)cc1)C(=O)N[C@@H](CS)C(=O)N[C@@H](CS)C(=O)N[C@@H](CCCCN)C(=O)N[C@@H](CCC(=O)O)C(=O)N[C@@H](CS)C(=O)N[C@@H](CCCNC(=N)N)C(=O)N[C@@H](CCCCN)C(=O)N[C@@H](CCCCN)C(=O)N[C@@H](C)C(=O)N[C@@H](CCCCN)C(=O)N[C@@H](CCCCN)C(=O)N[C@H](C(=O)N[C@@H](CCCCN)C(=O)N[C@@H](CCCCN)C(=O)O)C(C)C` [PF-307] (H-MKRRRCNWCGKLFYLEEKSKEAYCCKECRKKAKKVKK-OH; N-terminus and C-terminus assumed), the minimal inhibitory concentration (MIC) entry is “B. subtilis, 50 μM” in the data set on B. subtilis and “T. rubrum, 50 μM” in the data set on T. rubrum.
“FESKILNASKELDKEKKVNTALSFNSHQDFAKAYQNGKI [PF-606]”: the MIC result in the data set with E. coli was “E. coli, 50 μM”; with MRSA, “MRSA, 50 μM”; in the data set with S. mutans [2] (S. mutans) it was “S. mutans, 50 μM”.
For FIRKFLQKLHL [K-16], the MIC entry in the data set on MRSA is “MRSA, 25 μM”; against S. mutans [2] (S. mutans), “S. mutans, 8 μM”; against P. aeruginosa, 12.5 µM.
Consider “GSVIKKRRKRMAKKKHRKLLKKTRIQRRRAGK [PF-527]”, for which the MIC result with A. niger is “A. niger, 50 μM”; with T. rubrum, “T. rubrum, 25 μM”; with MRSA, “MRSA, 50 μM”.
As for KFQGEFTNIGQSYIVSASHMSTSLNTGK [PF-583], the MIC entry with MRSA is “MRSA, 50 μM”.
For KFSDQIDKGQDALKDKLGDL [PF-525], the MIC entry in the data set with A. niger was “A. niger, 50 μM”.
Turning to KNKKQTDILEKVKEILDKKKKTKSVGQKLY [PF-538], the MIC entry in the data set with C. difficile (C. difficile) was “C. difficile, 25 μM”.
As for “LGLTAGVAYAAQPTNQPTNQPTNQPTNQPTNQPTNQPRW-NH2 [PF-520]”, the MIC against S. pneumoniae (S. pneumoniae) worked out at 50 µM.
LSEMERRRLRKRA-NH2 [PF-529]: the MIC result in the data set on A. niger is “A. niger, 50 μM”; against S. pneumoniae, 50 µM.
For the compound LSLATFAKIFMTRSNWSLKRFNRL [PF-278], in the data set with T. rubrum, the minimum inhibitory concentration (MIC) entry is given as “T. rubrum, 50 μM”.
Turning to MIRIRSPTKKKLNRNSISDWKSNTSGRFFY [PF-283], the MIC entry with B. subtilis is “B. subtilis, 50 μM”; with T. rubrum it was “T. rubrum, 50 μM”.
As to MRFGSLALVAYDSAIKHSWPRPSSVRRLRM [PF-672], the minimal inhibitory concentration (MIC) entry was “A. niger, 3 μM” in the data set on A. niger and “MRSA, 1.56 μM” in the data set on MRSA.
As to NYAVVSHT [PF-209], the MIC result with MRSA is recorded as “MRSA, 50 μM”.
On the same count and under the same terms, under RESKLIAMADMIRRRI-NH2 [PF-545] stands “MRSA, 50 μM”.
For SLQSQLGPCLHDQRH [PF-448], the MIC result in the data set on A. niger was “A. niger, 25 μM”.
For “TAFRLANRSATQALGKGGGKNLRIIRKGIHIIKKY-NH2 (C-terminus assumed) [F2/6/10-A2/6/10_C16G2]”, the “% viability remaining” value in the data set with S. mutans [1] was found to be 78%.
Turning to “TFFRLFNRSFTQALAKGGGKNLRIIRKGIHIIKKY-NH2 (C-terminus assumed) [G15-A15_C16G2]”, the “% viability remaining” value in the data set on S. mutans [1] worked out at 47%.
Same read-out and setting: to “TFFRLFNRSFTQALDKGGGKNLRIIRKGIHIIKKY-NH2 (C-terminus assumed) [G15-D15_C16G2]” belongs 47%; to “TFFRLFNRSFTQALFKGGGKNLRIIRKGIHIIKKY-NH2 (C-terminus assumed) [G15-F15_C16G2]”, 29%.
In the case of “TFFRLFNRSFTQALGKGGGKNLRIIRKGIHIIKKY-NH2 [C16G2, reference compound]”, the “% viability remaining” value in the data set with S. mutans [1] is “antimicrobial peptide and GGG linker showed 5-18% remaining activity”.
Same read-out and setting: under “TFFRLFNRSLTQALGKGGGKNLRIIRKGIHIIKKY-NH2 (C-terminus assumed) [F10-L10_C16G2]” stands 30%; under “TFFRLFNRSQTQALGKGGGKNLRIIRKGIHIIKKY-NH2 (C-terminus assumed) [F10 to Q10_C16G2]”, 73%; under “TFFRLLNRSFTQALGKGGGKNLRIIRKGIHIIKKY-NH2 (C-terminus assumed) [F6-L6_C16G2]”, 43%.
In the case of “TFFRLQNRSFTQALGKGGGKNLRIIRKGIHIIKKY-NH2 (C-terminus assumed) [F6 to Q6_C16G2]”, the “% viability remaining” value in the data set with S. mutans [1] was 79%.
With “TKKIELKRFVDAFVKKSYENYILERELKKLIKAINEELPTK [PF-600]”, in the data set on E. coli, the minimal inhibitory concentration (MIC) entry is “E. coli, 50 μM”.
With “TLFRLFNRSFTQALGKGGGKNLRIIRKGIHIIKKY-NH2 (C-terminus assumed) [F2-L2_C16G2]”, the “% viability remaining” value in the data set on S. mutans [1] stood at 63%.
Still for that read-out and setting: to “TLFRLLNRSLTQALGKGGGKNLRIIRKGIHIIKKY-NH2 (C-terminus assumed) [F2F6F10-L2L6L10_C16G2]” belongs 26%.
On the same count and under the same terms, under “TQFRLFNRSFTQALGKGGGKNLRIIRKGIHIIKKY-NH2 (C-terminus assumed) [F2 to Q2_C16G2]” stands 47%; under “TWFRLFNRSFTQALGKGGGKNLRIIRKGIHIIKKY-NH2 (C-terminus assumed) [F2-W2_C16G2]”, 45%.
Regarding VLPFPAIPLSRRRACVAAPRPRSRQRAS [PF-168], in the data set on MRSA, the MIC result was “MRSA, 50 μM”.
The compound VYRKRKSILKIYAKLKGWH [K-2] returned an MIC in the data set on S. mutans [2] of 12.5 µM.
As to WSRVPGHSDTGWKVWHRW-NH2 [PF-547], the MIC result in the data set with B. subtilis was “B. subtilis, 25 μM”; in the data set on T. rubrum it was “T. rubrum, 25 μM”; in the data set with S. mutans [2], 12.5 µM.
In the case of YIQFHLNQQPRPKVKKIKIFL-NH2 [PF-531], the MIC entry is “B. subtilis, 25 μM” with B. subtilis; “A. niger, 25 μM” with A. niger; “T. rubrum, 50 μM” in the data set with T. rubrum; 6.25 µM against C. jeikeium; 12.5 µM against C. difficile; 25 µM against A. baumannii. Further, the MIC was found to be 12.5 µM with S. mutans [2], 50 µM against P. aeruginosa and 50 µM in the data set on S. epidermidis.
